Assay results as given in ChEMBL document CHEMBL1208702, “Use of 2-[(18)F]fluoroethylazide for the Staudinger ligation - Preparation and characterisation of GABA(A) receptor binding 4-quinolones” (Bioorg Med Chem Lett, 2010).

What was measured:
[1] = Biodistribution in iv dosed Sprague-Dawley rats large intestine after 60 mins by gamma counter; format: ADME, organism-based; conditions: rat, in vivo, 1 h
[2] = tested on: Muscle tissue; test: Biodistribution in iv dosed Sprague-Dawley rats muscle after 2 mins by gamma counter; format: ADME, organism-based; conditions: rat, in vivo
[3] = Biodistribution in iv dosed Sprague-Dawley rats stomach after 2 mins by gamma counter; format: ADME, organism-based; conditions: rat, in vivo
[4] = tested on: Liver; test: Biodistribution in iv dosed Sprague-Dawley rats liver after 30 mins by gamma counter; format: ADME, organism-based; conditions: rat, in vivo, 0.5 h
[5] = tested on: Muscle tissue; test: Biodistribution in iv dosed Sprague-Dawley rats muscle after 60 mins by gamma counter; format: ADME, organism-based; conditions: rat, in vivo, 1 h
[6] = tested on: Kidney; test: Biodistribution in iv dosed Sprague-Dawley rats kidneys after 2 mins by gamma counter; format: ADME, organism-based; conditions: rat, in vivo
[7] = tested on: Liver; test: Biodistribution in iv dosed Sprague-Dawley rats liver after 60 mins by gamma counter; format: ADME, organism-based; conditions: rat, in vivo, 1 h
[8] = tested on: Liver; test: Biodistribution in iv dosed Sprague-Dawley rats liver after 10 mins by gamma counter; format: ADME, organism-based; conditions: rat, in vivo
[9] = Biodistribution in iv dosed Sprague-Dawley rats fat after 10 mins by gamma counter; format: ADME, organism-based, Adipose tissue; conditions: rat, in vivo
[10] = Biodistribution in iv dosed Sprague-Dawley rats stomach after 30 mins by gamma counter; format: ADME, organism-based; conditions: rat, in vivo, 0.5 h
[11] = tested on: Kidney; test: Biodistribution in iv dosed Sprague-Dawley rats kidneys after 60 mins by gamma counter; format: ADME, organism-based; conditions: rat, in vivo, 1 h
[12] = tested on: Spleen; test: Biodistribution in iv dosed Sprague-Dawley rats spleen after 30 mins by gamma counter; format: ADME, organism-based; conditions: rat, in vivo, 0.5 h
[13] = tested on: Spleen; test: Biodistribution in iv dosed Sprague-Dawley rats spleen after 10 mins by gamma counter; format: ADME, organism-based; conditions: rat, in vivo
[14] = Biodistribution in iv dosed Sprague-Dawley rats large intestine after 30 mins by gamma counter; format: ADME, organism-based; conditions: rat, in vivo, 0.5 h
[15] = Drug uptake in low GABAA expression areas of Wistar rat brain prefrontal cortex at 0.1 MBq/ml after 60 mins by autoradiographic analysis; format: ADME, tissue-based; conditions: in vivo, 1 h
[16] = Biodistribution in iv dosed Sprague-Dawley rats fat after 0.5 min by gamma counter; format: ADME, organism-based, Adipose tissue; conditions: rat, in vivo
[17] = Biodistribution in iv dosed Sprague-Dawley rats large intestine after 0.5 min by gamma counter; format: ADME, organism-based; conditions: rat, in vivo
[18] = tested on: Muscle tissue; test: Biodistribution in iv dosed Sprague-Dawley rats muscle after 30 mins by gamma counter; format: ADME, organism-based; conditions: rat, in vivo, 0.5 h
[19] = tested on: Heart; test: Biodistribution in iv dosed Sprague-Dawley rats heart after 30 mins by gamma counter; format: ADME, organism-based; conditions: rat, in vivo, 0.5 h
[20] = Drug uptake in low GABAA expression areas of Wistar rat brain thalamus/striatum cortex at 0.1 MBq/ml after 60 mins by autoradiographic analysis; format: ADME, tissue-based; conditions: in vivo, 1 h
[21] = Biodistribution in iv dosed Sprague-Dawley rats stomach after 60 mins by gamma counter; format: ADME, organism-based; conditions: rat, in vivo, 1 h
[22] = tested on: Lung; test: Biodistribution in iv dosed Sprague-Dawley rats lung after 0.5 min by gamma counter; format: ADME, organism-based; conditions: rat, in vivo
[23] = Biodistribution in iv dosed Sprague-Dawley rats bladder and urine after 60 mins by gamma counter; format: ADME, organism-based; conditions: rat, in vivo, 1 h
[24] = Drug uptake in high GABAA expression areas of Wistar rat brain thalamus/striatum cortex at 0.1 MBq/ml after 60 mins by autoradiographic analysis; format: ADME, tissue-based; conditions: in vivo, 1 h
[25] = tested on: Lung; test: Biodistribution in iv dosed Sprague-Dawley rats lung after 60 mins by gamma counter; format: ADME, organism-based; conditions: rat, in vivo, 1 h
[26] = tested on: Brain; test: Biodistribution in iv dosed Sprague-Dawley rats brain after 10 mins by gamma counter; format: ADME, organism-based; conditions: rat, in vivo
[27] = tested on: Bone; test: Biodistribution in iv dosed Sprague-Dawley rats bone after 30 mins by gamma counter; format: ADME, organism-based, Bone element; conditions: rat, in vivo, 0.5 h
[28] = Biodistribution in iv dosed Sprague-Dawley rats small intestine after 10 mins by gamma counter; format: ADME, organism-based; conditions: rat, in vivo
[29] = tested on: Liver; test: Biodistribution in iv dosed Sprague-Dawley rats liver after 0.5 min by gamma counter; format: ADME, organism-based; conditions: rat, in vivo
[30] = tested on: Brain; test: Biodistribution in iv dosed Sprague-Dawley rats brain after 60 mins by gamma counter; format: ADME, organism-based; conditions: rat, in vivo, 1 h
[31] = Biodistribution in iv dosed Sprague-Dawley rats small intestine after 60 mins by gamma counter; format: ADME, organism-based; conditions: rat, in vivo, 1 h
[32] = tested on: Heart; test: Biodistribution in iv dosed Sprague-Dawley rats heart after 60 mins by gamma counter; format: ADME, organism-based; conditions: rat, in vivo, 1 h
[33] = Biodistribution in iv dosed Sprague-Dawley rats small intestine after 0.5 min by gamma counter; format: ADME, organism-based; conditions: rat, in vivo
[34] = Biodistribution in iv dosed Sprague-Dawley rats bladder and urine after 10 mins by gamma counter; format: ADME, organism-based; conditions: rat, in vivo
[35] = Biodistribution in iv dosed Sprague-Dawley rats fat after 30 mins by gamma counter; format: ADME, organism-based, Adipose tissue; conditions: rat, in vivo, 0.5 h
[36] = Biodistribution in iv dosed Sprague-Dawley rats small intestine after 30 mins by gamma counter; format: ADME, organism-based; conditions: rat, in vivo, 0.5 h
[37] = tested on: Heart; test: Biodistribution in iv dosed Sprague-Dawley rats heart after 10 mins by gamma counter; format: ADME, organism-based; conditions: rat, in vivo
[38] = Biodistribution in iv dosed Sprague-Dawley rats stomach after 10 mins by gamma counter; format: ADME, organism-based; conditions: rat, in vivo

With `O=C(NCC[18F])c1c[nH]c2ccc(Cc3ccccc3)cc2c1=O` the Drug uptake [1] was 1.9 %ID, the Drug uptake [2] was 47.3 %ID and the Drug uptake [3] was 1.2 %ID. The Drug uptake [4] was 18.7 %ID, the Drug uptake [5] was 4.6 %ID and the Drug uptake [6] was 3.6 %ID. It also gave a Drug uptake [7] of 4.8 %ID, a Drug uptake [8] of 33.7 %ID and a Drug uptake [9] of 1.8 %ID. For the same molecule, the Drug uptake [10] was 0.5 %ID, the Drug uptake [11] was 0.5 %ID and the Drug uptake [12] was 0.1 %ID. For the same molecule, the Drug uptake [13] was 0.2 %ID, the Drug uptake [14] was 1.7 %ID and the Drug uptake [15] was 76%. The Drug uptake [16] was 0.6 %ID, the Drug uptake [17] was 0.9 %ID and the Drug uptake [18] was 16.5 %ID. The Drug uptake [19] was 0.2 %ID, the Drug uptake [20] was 76% and the Drug uptake [21] was 0.2 %ID. It also gave a Drug uptake [22] of 2.9 %ID, a Drug uptake [23] of 7.3 %ID and a Drug uptake [24] of 76%. For the same molecule, the Drug uptake [25] was 0.1 %ID, the Drug uptake [26] was 0.1 %ID and the Drug uptake [27] was 1.5 %ID. It also gave a Drug uptake [28] of 24.5 %ID, a Drug uptake [29] of 14.6 %ID and a Drug uptake [30] of 0 %ID. For the same molecule, the Drug uptake [31] was 74.5 %ID, the Drug uptake [32] was 0.1 %ID and the Drug uptake [33] was 4.7 %ID. For the same molecule, the Drug uptake [34] was 0.8 %ID, the Drug uptake [35] was 1.7 %ID and the Drug uptake [36] was 50.3 %ID. The Drug uptake [37] was 0.3 %ID and the Drug uptake [38] was 1 %ID.
